For orientation: ED50 means the midpoint of the dose-response relation. For orientation: IC50 means the point on the concentration scale where inhibition reaches its midpoint. A lower IC50 goes with higher potency.

The nature of experiment [1]: Horizontal Screen Test for Determining Benzodiazepine Antagonism. The class given is in vivo, male CD1 mice. As to conditions: mice; given parenterally with chlordiazepoxide (28 mg/kg, sc); values above 0 considered active. On the procedure: Some of the compounds of the invention were tested for their ability to antagonize the locomotor discoordinating property of chlordiazepoxide. Male CD1 mice, fasted for at least 16 hours but allowed access to water except during the period of observation, were placed on a horizontally-held screen (mesh size 1/4", wire diameter approximately 1.0 mm). The screen was inverted and mice which successfully climb to the top side of the screen within one minute were selected for testing. Selected mice were weighed and divided into equal groups. Test compounds or vehicle were administered to those mice parenterally at the same time as chlordrazepoxide (28 mg/kg, sc). At a pre-determined interval (or intervals) after administration, the animals were tested for their ability to climb to the top side of the inverted screen (pass the test). Activity is reported as the percent antagonism of the number of animals that fail the test in each treatment group relative to the corresponding chlordiazepoxide-treated group. Percent Antagonism =100×[(Percent Fail in Chlordiazepoxide Group)-(Percent Fail in Test Group)/Percent Fail in Chlordiazepoxide Group]. […] The percent antagonism values for the compounds of the present invention that were tested are as follows: CP 113=0, CP 53=0, CP 59=0,CP 102=0,[…],CP 7=17,CP 8=17,CP 9=30,CP 10=30, CP 11=92, CP 12=92, CP 13=100. Compounds having values above 0 were considered active as agents for treating drug overdoses, particularly overdoses of benzodiazepine.

A short description of experiment [2]: Suppression of anxiety (punished licking, conflict test) in the adult male rat. The class given is in vivo, male rats. The settings on record: for minimal effective dose: read-out: Conflict MED; for Conflict (ip) MED: Table 1, ip, minimum effective dose, >10 = active dose not determined. The procedure, abridged: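 Rats were deprived of water for 48 h and food for 24 h, with unpunished training the day before. Testing began at expected peak drug activity: 3-min session, every 20th lick punished by a 0.2-s shock.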

Experiment [3] is described as follows: Suppression of metrazol-induced convulsions. The class given is in vivo, male CD1 mice. As to conditions: mice; for ED50: Mus musculus, 0.5 h, parenteral, clonic convulsions, read-out: Antimetrazol ED50; for Metrazol (ip) ED50: Table 1, clonic convulsions after sc CD90 metrazol, >30 = active dose not determined, 30 min.
Experiment [4] deals with benzodiazepine site of the GABA-A receptor. Put plainly: Benzodiazepine Receptor Binding Assay (inhibition of 3H-flunitrazepam binding). The settings on record: ca. 3 nM 3H-flunitrazepam.
[5] abbreviates: Table 3, minimum effective dose.
Setting [6] is: Table 4, minimum effective dose.
Where [7] appears, read: Table 5, minimum effective dose.
The mark [8] stands for this setting: Table 1, 25° C., 10-20 min, >10,000 = not active.

Read-outs that look alike come from different tables or passages of the source.

As for `O=C(NC1CCCCC1)C1=C(O)CCn2c1nc1ccccc12` [CP 7, N-Cyclohexyl-1,2-dihydro-3-hydroxy-pyrido(1,2-a)benzimidazole-4-carboxamide], the percent antagonism in experiment [1] was found to be 17%.
Consider `COc1ccc(NC(=O)C2=C(O)CCn3c2nc2ccccc23)cc1OC` [CP 8, 1,2-Dihydro-N-(3,4-dimethoxyphenyl)-3-hydroxy-pyrido(1,2-a)benzimidazole-4-carboxamide], for which the percent antagonism in experiment [1] came to 17%.
Turning to `O=C1CCN2C(=C1C(=O)Nc1ccc([N+](=O)[O-])cc1)Nc1ccccc12` [CP 9], in experiment [1], the percent antagonism is 30%.
The same measure, in the same setting: to `O=C(Nc1ccc(O)cc1)C1=C(O)CCn2c1nc1ccccc12` [CP 10, 1,2-Dihydro-3-hydroxy-N-(4-hydroxyphenyl)pyrido(1,2-a)benzimidazole-4-carboxamide] belongs 30%.
As to `O=C1CCN2C(=C1C(=O)Nc1ccc(F)cc1F)N(Cc1ccccc1)c1ccccc12` [compound 129], the minimal effective dose in experiment [2] (setting [5]) is above 10 mg/kg. In experiment [3] (Table 3), the ED50 stood at 1 mg/kg. Also, the IC50 in experiment [4] (Table 3) worked out at 12 nM.
Turning to `CCCN1C2=C(C(=O)Nc3ccccc3F)C(=O)CCN2c2ccccc21` [compound 130], in experiment [2] (setting [5]), the minimal effective dose was below 0.3 mg/kg. Also, the ED50 in experiment [3] (Table 3) turned out to be 0.1 mg/kg. In addition, the IC50 in experiment [4] (Table 3) was below 1 nM.
In the same order, the values of `CCCN1C2=C(C(=O)Nc3ccc(F)cc3F)C(=O)CCN2c2ccccc21` [compound 131] are below 1 mg/kg, 0.3 mg/kg and 2.6 nM.
In the same order, the values of `CCN1C2=C(C(=O)Nc3ccncc3)C(=O)CCN2c2ccccc21` [compound 133] are 3 mg/kg, 3 mg/kg and 80 nM.
Taken in the same sequence, the figures for `CC1CN2C(=C(C(=O)Nc3ccccc3)C1=O)N(C)c1ccccc12` (stereo not shown) [compound 134] were above 10 mg/kg, 3 mg/kg and 67 nM.
For the molecule `CN1C2=C(C(=O)Nc3c(F)cc(F)cc3F)C(=O)CCN2c2ccccc21` [compound 135], the minimal effective dose in experiment [2] (setting [5]) was above 10 mg/kg. Moreover, the ED50 in experiment [3] (Table 3) is 10 mg/kg. This molecule also showed an IC50 in experiment [4] (Table 3) of 13 nM.
With `CCCN1C2=C(C(=O)Nc3ccccc3)C(=O)CCN2c2ccccc21` [compound 136], the minimal effective dose in experiment [2] (setting [5]) is 10 mg/kg. The ED50 in experiment [3] (Table 3) was 1 mg/kg. Besides, the IC50 in experiment [4] (Table 3) amounted to 2.5 nM.
For `CCCN1C2=C(C(=O)Nc3c(F)cc(F)cc3F)C(=O)CCN2c2ccccc21` [compound 137], the minimal effective dose in experiment [2] (setting [5]) is above 10 mg/kg. Moreover, the ED50 in experiment [3] (Table 3) is 1 mg/kg. In experiment [4] (Table 3), this molecule registered an IC50 below 100 nM.
Regarding `O=C(Nc1ccccc1)c1c(=O)ccn2c1[nH]c1ccccc12` [compound 138], in experiment [2] (setting [6]), the minimal effective dose lay within 1 to 10 mg/kg. The ED50 in experiment [3] (Table 4) was 0.5 mg/kg. For the same molecule, the IC50 in experiment [4] (Table 4) came out at 24 nM.
Taken in the same sequence, the figures for `O=C(Nc1ccccc1F)c1c(=O)ccn2c1[nH]c1ccccc12` [compound 139] were 0.1 mg/kg, 0.3 mg/kg and 0.23 nM.
Taken in the same sequence, the figures for `O=C(Nc1ccncc1)c1c(=O)ccn2c1[nH]c1ccccc12` [compound 140] were above 10 mg/kg, above 10 mg/kg and 260 nM.
Taken in the same sequence, the figures for `O=C(Nc1c(F)cccc1F)c1c(=O)ccn2c1[nH]c1ccccc12` [compound 141] were 0.3 mg/kg, below 0.1 mg/kg and below 1 nM.
As for `Cn1c2ccccc2n2ccc(=O)c(C(=O)Nc3ccccc3)c12` [compound 142], the minimal effective dose in experiment [2] (setting [6]) was below 1 mg/kg. In addition, in experiment [3] (Table 4), the ED50 is below 1 mg/kg. Moreover, the IC50 in experiment [4] (Table 4) turned out to be 45 nM.
Take `O=C1CCCN2C(=C1C(=O)Nc1ccccc1)Nc1ccccc12` [compound 143]: in experiment [2] (setting [7]), the minimal effective dose turned out to be 10 mg/kg. The ED50 in experiment [3] (Table 5) is above 10 mg/kg. Besides, in experiment [4] (Table 5), the IC50 was found to be 104 nM.
In the same order, the values of `CN1C2=C(C(=O)Nc3ccccc3)C(=O)CCCN2c2ccccc21` [compound 144] are above 10 mg/kg, above 10 mg/kg and 28 nM.
In the same order, the values of `O=C1CCCN2C(=C1C(=O)Nc1ccccc1)N(Cc1ccccc1)c1ccccc12` [compound 145] are above 10 mg/kg, above 10 mg/kg and 420 nM.
Taken in the same sequence, the figures for `O=C1CCCN2C(=C1C(=O)Nc1ccccc1F)Nc1ccccc12` [compound 146] were 10 mg/kg, 1 to 10 mg/kg and 3.1 nM.
For `CN1C2=C(C(=O)Nc3ccccc3F)C(=O)CCCN2c2ccccc21` [compound 147], the minimal effective dose in experiment [2] (setting [7]) was above 10 mg/kg. Besides, the ED50 in experiment [3] (Table 5) is above 10 mg/kg. For the same molecule, the IC50 in experiment [4] (Table 5) is 22 nM.
`O=C1CCCN2C(=C1C(=O)Nc1ccccc1F)N(Cc1ccccc1)c1ccccc12` [compound 148]: the minimal effective dose in experiment [2] (setting [7]) was above 10 mg/kg. Besides, in experiment [3] (Table 5), the ED50 is above 10 mg/kg. This molecule came in with a half-maximal inhibitory concentration (IC50) in experiment [4] (Table 5) of 150 nM.
On to `CN(C)c1ccc(NC(=O)C2=C3Nc4ccccc4N3CCCC2=O)cc1` [compound 149], for which the minimal effective dose in experiment [2] (setting [7]) is above 10 mg/kg. For the same molecule, in experiment [3] (Table 5), the ED50 was above 10 mg/kg. In experiment [4] (Table 5), this molecule yielded an IC50 of 1120 nM.
In the case of `CN(C)c1ccc(NC(=O)C2=C3N(C)c4ccccc4N3CCCC2=O)cc1` [compound 150], in experiment [2] (setting [7]), the minimal effective dose is above 10 mg/kg. The ED50 in experiment [3] (Table 5) was above 10 mg/kg. The molecule further registered an IC50 in experiment [4] (Table 5) of 3100 nM.
Consider `CN(C)c1ccc(NC(=O)C2=C3N(CCCC2=O)c2ccccc2N3Cc2ccccc2)cc1` [compound 151], for which the minimal effective dose in experiment [2] (setting [7]) was above 10 mg/kg. Besides, the ED50 in experiment [3] (Table 5) was above 10 mg/kg. In experiment [4] (Table 5), the IC50 was found to be 12400 nM.
As for `O=C1CCCN2C(=C1C(=O)Nc1ccncc1)Nc1ccccc12` [compound 152], in experiment [2] (setting [7]), the minimal effective dose was below 10 mg/kg. Besides, in experiment [3] (Table 5), the ED50 is above 10 mg/kg. For the same molecule, in experiment [4] (Table 5), the IC50 is 1460 nM.
Taken in the same sequence, the figures for `CN1C2=C(C(=O)Nc3ccncc3)C(=O)CCCN2c2ccccc21` [compound 153] were above 10 mg/kg, above 10 mg/kg and 2600 nM.
Taken in the same sequence, the figures for `O=C1CCCN2C(=C1C(=O)Nc1ccc(F)cc1F)Nc1ccccc12` [compound 155] were above 10 mg/kg, 10 mg/kg and 39 nM.
In the same order, the values of `O=C1CCCN2C(=C1C(=O)Nc1ccc(F)cc1F)N(Cc1ccccc1)c1ccccc12` [compound 156] are above 10 mg/kg, above 10 mg/kg and 330 nM.
Consider `CN1C2=C(C(=O)Nc3c(F)cc(F)cc3F)C(=O)CCCN2c2ccccc21` [compound 157], for which the minimal effective dose in experiment [2] (setting [7]) is above 10 mg/kg. Also, the ED50 in experiment [3] (Table 5) was above 10 mg/kg. In experiment [4] (Table 5), this molecule showed an IC50 of 53 nM.
Consider “N-(2,4-Difluorophenyl)-4-oxo-1,2,3,4-tetrahydro-6H-azepino(1,2-a)benzimidazol-5-carboxamide [CP 155]”, for which, in experiment [2], the “Conflict (ip) MED” value was above 10 mg/kg. In experiment [3], the “Metrazol (ip) ED50” value was 10 to 30 mg/kg. The molecule further had an IC50 in experiment [4] (setting [8]) of 210 nM.
Regarding “N-(2,6-Difluorophenyl)-3-hydroxypyrido(1,2-a)benzimidazole-4-carboxamide [CP 141]”, the “Conflict (ip) MED” value in experiment [2] amounted to 10 mg/kg. Moreover, the “Metrazol (ip) ED50” value in experiment [3] is reported as 10 mg/kg. The same molecule gave an IC50 in experiment [4] (setting [8]) of 140 nM.
Take “N-(2-Fluorophenyl)-6-methyl-4-oxo-1,2,3,4-tetrahydro-6H-azepino(1,2-a)benzimidazol-5-carboxamide [CP 147]”: the “Conflict (ip) MED” value in experiment [2] amounted to 10 mg/kg. Besides, in experiment [3], the “Metrazol (ip) ED50” value is listed as 5 mg/kg. Also, the IC50 in experiment [4] (setting [8]) came to 51 nM.
As for “N-(4-Pyridyl)-1,2-dihydro-3-hydroxypyrido-(1,2-a)benzimidazole-4-carboxamide [CP 35]”, the “Conflict (ip) MED” value in experiment [2] amounted to 10 mg/kg. For the same molecule, in experiment [3], the “Metrazol (ip) ED50” value turned out to be 3 mg/kg. The same molecule yielded an IC50 in experiment [4] (setting [8]) of 9.1 nM.
Take “Phenyl-1,2-dihydro-3-hydroxypyrido(1,2-a)benzimidazole-4-carboxthiolate [CP 119]”: the “Conflict (ip) MED” value in experiment [2] is recorded as 10 mg/kg. The “Metrazol (ip) ED50” value in experiment [3] is 30 mg/kg. In addition, the IC50 in experiment [4] (setting [8]) was 43 nM.
In the case of “Phenyl-1,2-dihydro-3-hydroxypyrido(1,2-a)benzimidazole-4-carboxylate [CP 118]”, the “Conflict (ip) MED” value in experiment [2] came out at 10 mg/kg. Also, in experiment [3], the “Metrazol (ip) ED50” value came out at 3 mg/kg. In experiment [4] (setting [8]), this molecule registered an IC50 of 41 nM.

Values taken from patent US6218384A, “3-Oxo-pyrido(1,2-a)benzimidazole-4-carboxyl and 4-oxo-azepino(1,2-a)benzimidazole-5-carboxyl derivatives useful in treating central nervous system disorders” (Ortho-McNeil Pharmaceutical, Inc., priority 1997, dated 2001).
